Experimental data reported in US20250195523A1, “ORGANIC MOLECULES FOR TREATING MYELIN PATHOLOGIES” (ICM (INSTITUT DU CERVEAU ET DE LA MOELLE ÉPINIÈRE), priority 2022, published 2025).

What was measured:
[1] = test system: primary OPCs purified by magnetic cell sorting (MACS) from neonatal cortices; test: Primary OPC cultures purified by MACS, morphological complexity of OLs; format: cell-based, mice; conditions: OPCs treated for two days; compared to vehicle; FIG. 2B
Method: Brains were collected from PLPGFP and P4 Swiss mice […] and washed 3 times in PBS 1× (Invitrogen) with 1% of penicillin/streptomycin (Sigma). Cortex and corpus callosum were dissected and dissociated using neural tissue dissociation kit (T) (Miltenyi biotec) and with dissociator (gentleMACS Octo Dissociator, Miltenyi Biotec). OPC magnetic cell sorting was performed using anti-PDGFRα-coupled-beads (CD140a-PDGFRα MicroBead Kit, Miltenyi biotec) and MultiMACS Cell24 Separator Plus (Miltenyi biotec). Cells were collected in PBS and amplified for 2 days in a proliferating medium (with growth factors IGF, EGF, FGF, and PDGFα). Then, 40.000 cells were plated in 24 well plates adherent on coverslips, beforehand coated with poly-ornithine (Merck) diluted in 4 volumes of H2O and washed 3 times. Successively, for 2 days of proliferation and differentiation, medium was added with drugs at 250 nM, 500 nM and 750 nM, and their respective vehicles (DMSO, PBS). Cells were fixed in 4% PBS-paraformaldehyde (thermo fisher) for 10 minutes and washed 3 times in PBS-1×.
For coated-coverslip, blocking was performed in a moist chamber for 30 mn at room temperature (RT) in the blocking buffer (0.05% Triton X-100/10% normal goat serum/PBS). Then, coverslip were incubated for 30 mn with the following primary antibodies at RT. Rat anti-PDGFRα (1:250, BD Biosciences); Mouse anti-CNPase (mlgG1, 1:250; Millipore); Rabbit anti-Btub (1:1000; BABCO); Chicken anti-GFAP (1:500, Avelabs), Mouse anti-MBP (mlgG1, 1:150; Abcam); Rabbit anti-Sox10 (1:1000; Proteintech). Following 3 washing in 0.05% Triton X-100/PBS, coverslips were incubated 30 min at RT in dark with appropriate secondary antibodies conjugated with Alexa Fluor 488, 594 and 647 (1:1000; Molecular Probes or Thermo Fisher) and Dapi (1:5000 from working solution at 5 mg/ml; Life Technologies; D1306). Coverslips were washed 3 times in 0.05% Triton X-100/PBS and mounted with Fluoromount-G (SouthernBiotech).
To evaluate cell specific contribution of the drugs directly in OL differentiation and maturation, we used primary OPCs purified by magnetic cell sorting (MACS) from neonatal cortices (P4).

[2] = test system: cerebellar slices explants; test: Ex vivo cerebellar organotypic explant culture, differentiation and myelination index; format: cell-based, mice; conditions: 750 nM, three days (7-10 DIV)
Method: We prepared cerebellar organotypic cultures from newborn (P0) mice. Cerebellar parasagittal slices (350 μm thick) were cut on a McIlwain tissue chopper and transferred onto 30 mm diameter Millipore culture inserts with […] (Millicell, Millipore). Slices were maintained in incubators at 37° C., under a humidified atmosphere containing 5% CO2 in six-well-plates containing 1 mL of slice culture media. This medium includes basal medium eagle (Invitrogen), 25% complete HBSS, 27 mM D-glucose, 100 U/mL penicillin/streptomycin, 1 mM glutamine (Sigma) and 5% horse serum (New Zealand origin, heat inactivated; Invitrogen). Medium was renewed every 2 days until 7 DIV, reaching the appropriate culture periods to study OPC differentiation and myelination. […] Slices were collected and fixed for 1 h at RT in PBS-4% paraformaldehyde, washed 3 times in PBS, and incubated 20 min at 4° C. in Clark's solution (95% ethanol/5% acetic acid), then washed 3 times in PBS 1×.
For ex-vivo cerebellar slices, slices were incubated 20 min at 4° C. in Clark's solution (95% ethanol/5% acetic acid), then washed 3 times in PBS 1×. Then, sections were incubated for 1 hour in a blocking buffer (0.2% Triton X-100/4% bovine serum albumin/4% donkey serum/PBS). Slices were incubated for 2 hours with the following primary antibodies at RT: Goat anti-Sox10 (1:100, R&D Systems); Rabbit anti-Calbindin (1:1000; Swant); Rat anti-MBP (1:200; Abcam); Mouse anti-CC1 (IgG2b; 1:100, Calbiochem). Then slices were washed 3 times in PBS/0.1% Triton X-100 and incubated in blocking buffer (dark, RT) for 2 hours with appropriate secondary antibodies conjugated with Alexa Fluor 488, 594 and 647 (1:1000; Molecular Probes or Thermo Fisher) and Dapi (1:5000 from working solution at 5 mg/ml; Life Technologies; D1306). Finally, slices were washed 3 times in PBS/0.1% Triton X-100 after incubation and mounted in Fluoromount-G (SouthernBiotech).
Then, we firstly performed a simpler and faster experimental model using cerebellar slices explants to identify the best drugs having pro-oligodendrogenenic and pro-myelinating activities in this ex vivo model, to be used in the in vivo analyses. Indeed, this model allowed us to better assess later aspects of OL maturation, myelination, and cytotoxicity in a richer cellular system, also containing immune cells (microglia/macrophages) that are known to influence oligodendrogenesis and (re) myelination. In this model, the start of myelination takes place after 7 days in culture (FIG. 3A). […] We then analyzed the effect in terms of OL numbers (CC1+/Sox10+ cells) and myelination (MBP labeling on CaBP+ Purkinje cell axons), by immunodetection of all four markers in the same sections. We calculated the differentiation index as the ratio of Sox10+ cells being CC1+, and the myelination index as the ratio CaBP+ axons being MBP+. […] On the one hand, we used the adult focal de/remyelination induced by intracerebral injection of […] (LPC) mimicking de/remyelination of MS, and on the other hand, the neonatal chronic hypoxia model, mimicking PTB hypomyelination.

SMILES: CCCCOc1ccc(C(=O)CCN2CCCCC2)cc1.Cl [Sm5, Dyclonine hydrochloride]
- morphological complexity of OLs (PLP+ cells) [1]: strongly increased
- differentiation index (CC1+/Sox10+ OLs number) ([2]; compared to negative controls, FIG. 3B): increased differentiation index
- myelination process (MBP+/CaBP+), myelination index ([2]; compared to vehicle, FIG. 3C): robust increase
